The test system of series [1] is Huntington's disease symptoms. The following applies: HD patients, dose-finding study not powered to detect alterations in symptoms or progression. The text has this: (§1) Peripheral blood samples were collected from 62 HD subjects and 53 age- and gender-matched healthy controls. The HD group included a cohort of 9 early asymptomatic carriers of the gene mutation, as determined by genetic testing, consisting of 5 females and 4 males with the average age of 22.5±2.6 years. An additional group of 21 late presymptomatic carriers of the HD mutation was also included in the study. Of these, 11 were females and 10 were males with the average age of 39±6.1. An additional 32 patients were symptomatic, 17 females and 15 males, with the average age of 49.6±5.9. The determination of the neurological status of the HD patients utilized the Huntington's Disease Rating Scale (UHDRS) performed by an experienced HD neurologist. All of the symptomatic patients were in Stage I or II of disease, as determined by the total functional capacity scores (TFC 7-12). All samples were obtained in accordance with the Institutional Review Boards and participants gave written informed consent. Blood samples were also obtained from 12 symptomatic patients (7 males and 5 females) participating in a dose-finding study of the HDAC inhibitor, sodium phenylbutyrate (SPB 11, Scandinavian Designs, Sellersville, Pa.) at Oregon Health and Science University. The dosage of sodium phenylbutyrate in these subjects ranged from 12 to 18 grams per day administered in 3 doses.

The conditions of series [2]: HD patients, as a result of phenylbutyrate treatments.
Excerpt: as §1

The subject of series [3] is 12-gene marker set (ANXA1, AXOT, CAPZA1, HIF1A, JJAZ1, P2Y5, PCNP, ROCK1, SF3B1, SP3, TAF7, YIPPEE) mRNA in blood. As to conditions: 12 HD patients, after 4 weeks of treatment, QRT-PCR, P<0.05.
Excerpt: as §1

The test system of series [4] is transgenic mouse models of HD. As to conditions: Gardian et al., J. Biol. Chem. 280: 556-563, 2005; cited from earlier work.

Turning to `O=C([O-])CCCc1ccccc1.[Na+]` [phenylbutyrate, sodium phenylbutyrate], the symptomatic effects result in series [1] is “no significant symptomatic effects”. Also, the “total and differential cell blood counts” value in series [2] is “no consistent differences”. In addition, the “expression of each individual gene of the marker set in blood after treatment compared to untreated samples” value in series [3] is 8 out of 12 genes were significantly decreased and statistically significant decrease in expression of 8 out of 12 genes. In addition, the neuroprotective effects result in series [4] is recorded as “significant neuroprotective effects”.

(Values after patent US20070015183A1, “Biomarkers for huntington's disease” (The General Hospital Corporation, priority 2005, published 2007).)
